# Test results reported in publication PMC9656436, “Synthesis and Biological Evaluation of New Isoxazolyl Steroids as Anti-Prostate Cancer Agents” (International Journal of Molecular Sciences, 2022).
# Like-named read-outs stand apart in the source and are kept apart here.
# Assays:
# CYP17A1 [1] = target: T1, CYP17A1 (Homo sapiens, UniProt P05093); test: UV-Vis spectrophotometric titration (type I spectral response); assay type: binding
# T1 construct: recombinant human CYP17A1, purified
# T1 sequence (P05093 1-508): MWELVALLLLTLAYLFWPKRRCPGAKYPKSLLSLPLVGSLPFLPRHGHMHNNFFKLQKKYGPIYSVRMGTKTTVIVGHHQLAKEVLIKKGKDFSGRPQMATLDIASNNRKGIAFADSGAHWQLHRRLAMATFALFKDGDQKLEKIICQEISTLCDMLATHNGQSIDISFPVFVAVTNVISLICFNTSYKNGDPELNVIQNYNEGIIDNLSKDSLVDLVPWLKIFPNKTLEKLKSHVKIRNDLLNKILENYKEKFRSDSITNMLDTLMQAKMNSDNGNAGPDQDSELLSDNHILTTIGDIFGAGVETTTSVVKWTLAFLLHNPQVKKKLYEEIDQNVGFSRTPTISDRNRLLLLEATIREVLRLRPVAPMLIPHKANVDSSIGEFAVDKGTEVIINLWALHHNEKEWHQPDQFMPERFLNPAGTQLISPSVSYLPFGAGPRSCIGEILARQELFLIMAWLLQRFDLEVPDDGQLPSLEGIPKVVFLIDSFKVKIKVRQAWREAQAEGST
# CYP17A1 [2] = target: T2, CYP17A1 (Homo sapiens, UniProt P05093); test: reconstituted […]α-hydroxylase assay, HPLC, […] compound; assay type: biochemical; conditions: read-out: 17α-Hydroxylase Activity / Inhibition, %
# T2 construct: recombinant human CYP17A1, reconstituted system; with NADPH-cytochrome P450 reductase (rat)
# T2 sequence (P05093 1-508): T1 sequence (P05093 1-508)
# T2 sequence (P00388 2-678 partner): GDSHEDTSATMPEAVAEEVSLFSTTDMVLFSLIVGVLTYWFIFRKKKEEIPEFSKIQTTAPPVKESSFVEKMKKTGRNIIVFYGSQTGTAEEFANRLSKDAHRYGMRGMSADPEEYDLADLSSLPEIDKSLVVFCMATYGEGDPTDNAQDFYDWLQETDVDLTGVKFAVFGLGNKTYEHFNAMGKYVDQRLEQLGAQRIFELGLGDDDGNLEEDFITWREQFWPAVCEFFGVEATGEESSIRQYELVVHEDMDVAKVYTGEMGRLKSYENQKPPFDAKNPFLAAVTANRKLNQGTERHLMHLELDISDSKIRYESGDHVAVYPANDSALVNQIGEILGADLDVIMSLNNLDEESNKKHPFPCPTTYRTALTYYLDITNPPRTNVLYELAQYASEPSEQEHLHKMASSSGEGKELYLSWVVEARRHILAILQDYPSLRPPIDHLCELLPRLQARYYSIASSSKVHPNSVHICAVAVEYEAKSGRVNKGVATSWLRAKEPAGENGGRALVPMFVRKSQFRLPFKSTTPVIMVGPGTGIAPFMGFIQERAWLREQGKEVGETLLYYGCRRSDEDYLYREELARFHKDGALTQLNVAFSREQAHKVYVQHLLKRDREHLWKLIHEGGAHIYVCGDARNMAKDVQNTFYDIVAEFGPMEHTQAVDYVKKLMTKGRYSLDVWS
# DU145 = test: cells; parameters: resazurin (Alamar blue) viability assay, resorufin fluorescence, GI50 from dose-response; conditions: Homo sapiens, DU-145, 72 h; read-out: Viability after 72 h (GI50) DU145
# Experimental: (§1) Cells were seeded into the 96-well tissue culture plates and, on the other day, compounds were added in different concentrations in duplicate for 72 h. Upon treatment, the resazurin solution (Sigma Aldrich, St. Louis, MI, USA) was added for 4 h, and then the fluorescence of resorufin was measured at 544 nm/590 nm (excitation/emission) using a Fluoroskan Ascent microplate reader (Labsystems, Budapest, Hungary). The GI50 value was calculated from the dose–response curves that resulted from the measurements using GraphPad Prism 5. Antiproliferative properties of all novel steroids were tested in two AR-positive prostate cancer cell lines (LNCaP and LAPC-4) and one AR-negative cell line (DU145) using the Alamar-blue assay after 72 h treatment.
# LAPC-4 = test: cells; parameters: resazurin (Alamar blue) viability assay, resorufin fluorescence, GI50 from dose-response; conditions: Homo sapiens, LAPC4, 72 h; read-out: Viability after 72 h (GI50) LAPC-4
# Experimental: as §1
# LNCaP = test: cells; parameters: resazurin (Alamar blue) viability assay, resorufin fluorescence, GI50 from dose-response; conditions: Homo sapiens, 72 h, read-out: Viability after 72 h (GI50) LNCaP
# Experimental: as §1
# AR = test system: T3, AR; test: cells; parameters: species or system ARE14; ARE-driven firefly luciferase reporter; AR transcriptional activity normalised to 1 nM R1881; conditions: 24 h
# T3 construct: endogenous AR in ARE14 reporter cells (22Rv1-derived)
# Experimental: ARE14 cells were seeded (40,000 cells/well) into the Nunc™ MicroWell™ 96-well optical plate (Thermo Fisher Scientific, Waltham, MA, USA) on the second day. The cultivation medium was discarded, and the cells were washed with PBS. Analyzed compounds were dissolved in medium supplemented with CSS (agonist mode) or CSS with 1 nM R1881 (antagonist mode) and added to cells, including CSS and 1 nM R1881 controls. Upon 24 h of incubation, cells were washed with PBS and lysed for 10 min in a lysis buffer (10 mM Tris pH = 7.4, 2 mM DCTA, 1% nonidet P40, 2 mM DTT) at 37 °C. Next, a reaction buffer (20 mM tricine pH = 7.8, 1.07 mM MgSO4^.7H2O, 5 mM ATP, 9.4 mM luciferin) was added, and the luminescence was measured using a Tecan M200 Pro microplate reader ([…]). Based on the structural similarity of novel derivatives with galeterone and other published compounds (abiraterone, 3, and [6]), we tested the effect of our compounds towards the AR-transcriptional activity. Compounds were evaluated using an AR-dependent reporter cell line (ARE14) with a firefly-luciferase gene under the control of an androgen response element.
# CYP17A1 [3] = target: T4, CYP17A1 (Homo sapiens, UniProt P05093); test: reconstituted […],20-lyase assay, HPLC, […] compound; assay type: biochemical; conditions: read-out: 17,20-Lyase Activity / Inhibition, %
# T4 construct: recombinant human CYP17A1, reconstituted system; with NADPH-cytochrome P450 reductase (rat), cytochrome b5 (human)
# T4 sequence (P00167 2-134 partner, one chain of several): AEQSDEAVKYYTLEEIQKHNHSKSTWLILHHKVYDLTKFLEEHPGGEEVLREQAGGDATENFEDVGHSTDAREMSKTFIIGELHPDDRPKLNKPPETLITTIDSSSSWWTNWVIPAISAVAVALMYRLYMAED
# CYP17A1 [4] = target: T1, CYP17A1; test: UV-Vis spectrophotometric titration (type II spectral response); assay type: binding
# [5] = compound alone, vs 1 nM R1881 = 100%, read-out: AGONIST MODE 2 μM
# [6] = compound alone, vs 1 nM R1881 = 100%, read-out: AGONIST MODE 10 μM
# [7] = compound alone, vs 1 nM R1881 = 100%, read-out: AGONIST MODE 50 μM
# [8] = with 1 nM R1881, read-out: % of control remaining
SMILES,Kd (CYP17A1 [1]; read-out: Kd) [µM],inhibition at 50 µM (CYP17A1 [2]) [%],GI50 (DU145) [µM],GI50 (LAPC-4) [µM],GI50 (LNCaP) [µM],activity at 2 µM (AR; [5]) [%],activity at 10 µM (AR; [6]) [%],activity at 50 µM (AR; [7]) [%],activity at 2 µM (AR; [8]) [%],activity at 10 µM (AR; [8]) [%],activity at 50 µM (AR; [8]) [%],inhibition at 50 µM (CYP17A1 [3]) [%],Kd (CYP17A1 [1]) [µM],Kd (CYP17A1 [4]) [µM]
"C[C@]12CC[C@H]3[C@@H](CC=C4C[C@@H](O)CC[C@@]43C)[C@@H]1CC[C@@H]2Cc1ccno1 [24a, (17R)-(Isoxazol-5-ylmethyl)-androst-5-en-3β-ol]",0.13 ± 0.02,,,,,,,,,,,,,
"CC(C)c1cc(C[C@H]2CC[C@H]3[C@@H]4CC=C5C[C@@H](O)CC[C@]5(C)[C@H]4CC[C@]23C)on1 [24b, (17R)-17-((3-isopropylisoxazol-5-yl)methyl)-androst-5-en-3β-ol]",,45,,,,,,,,,,,,
"C[C@]12CC[C@H]3[C@@H](CC=C4C[C@@H](O)CC[C@@]43C)[C@@H]1CC[C@@H]2Cc1cc(C2CC2)no1 [24c, (17R)-17-((3-Cyclopropylisoxazol-5-yl)methyl)-androst-5-en-3β-ol]",,45.7,,,,,,,,,,,,
"CCCCc1cc(C[C@H]2CC[C@H]3[C@@H]4CC=C5C[C@@H](O)CC[C@]5(C)[C@H]4CC[C@]23C)on1 [24d, 17β-((3-Butylisoxazol-5-yl)methyl)-androst-5-en-3β-ol]",1.5 ± 0.21,,> 50,> 50,> 50,17.8 ± 0.1,21.1 ± 1.6,18.6 ± 3.6,109 ± 12.1,113 ± 21.1,104 ± 42.6,,,
"C[C@]12CC[C@H]3[C@@H](CC=C4C[C@@H](O)CC[C@@]43C)[C@@H]1CC[C@@H]2Cc1cc(-c2ccccc2)no1 [24e, (17R)-17-((3-Phenylisoxazol-5-yl)methyl)-androst-5-en-3β-ol]",,,> 50,> 50,> 50,14.7 ± 0.5,14.2 ± 1.4,12.8 ± 0.2,101 ± 9.5,101 ± 13.6,125 ± 27.4,,,
"CC(C)(O)c1cc(C[C@H]2CC[C@H]3[C@@H]4CC=C5C[C@@H](O)CC[C@]5(C)[C@H]4CC[C@]23C)on1 [24j, (17R)-17-((3-(2-Hydroxypropan-2-yl)isoxazol-5-yl)methyl)-androst-5-en-3β-ol]",1.9 ± 0.23,,> 50,18.2 ± 1.2,25.8 ± 0.6,14.4 ± 2.8,12.6 ± 0.1,6.1 ± 1.5,100 ± 13.5,84.8 ± 17.4,21.6 ± 7.8,,,
"C[C@]12CC[C@H]3[C@@H](CC=C4C[C@@H](O)CC[C@@]43C)[C@@H]1CC[C@@H]2Cc1ccon1 [41a, (17R)-17-(Isoxazol-3-ylmethyl)-androst-5-en-3β-ol]",,,> 50,> 50,> 50,14.5 ± 1.5,14.7 ± 0.1,12.1 ± 1.3,98.2 ± 17.5,73.7 ± 14.9,50.8 ± 18.8,42.3,,
"C[C@]12CC[C@H]3[C@@H](CC=C4C[C@@H](O)CC[C@@]43C)[C@@H]1CC[C@@H]2Cc1cc(-c2cccnc2)on1 [41f, (17R)-17-((5-(Pyridin-3-yl)isoxazol-3-yl)methyl)-androst-5-en-3β-ol]",,,,,,,,,,,,41.1,,
"C[C@]12CC[C@H](O)CC1=CC[C@@H]1[C@@H]2CC[C@]2(C)C(n3cnc4ccccc43)=CC[C@@H]12 [Gal, galeterone]",,,47.6 ± 0.2,28.6 ± 0.6,46.8 ± 0.1,15.4 ± 0.4,10.8 ± 3.1,2.4 ± 1.1,65.2 ± 6.1,35.1 ± 3.3,3 ± 1.8,,,
CC(=O)[C@H]1CC[C@H]2[C@@H]3CCC4=CC(=O)CC[C@]4(C)[C@H]3CC[C@]12C [Progesterone],,,,,,,,,,,,,< 1,
C[C@]12CC[C@H](O)CC1=CC[C@@H]1[C@@H]2CC[C@]2(C)C(c3cccnc3)=CC[C@@H]12 [abiraterone],,,,,,,,,,,,,,< 1
"C[C@]12CC[C@H]3[C@@H](CC=C4C[C@@H](O)CC[C@@]43C)[C@@H]1CC[C@@H]2CC(=O)/C(OC(=O)n1ccnc1)=C(\N)C1CC1 [compound 27, (E)-1-Amino-4-((17R)-3β-hydroxy-androst-5-en-17-yl)-1-cyclopropyl-3-oxobut-1-en-2-yl 1H-imidazole-1-carboxylate]",,,> 50,> 50,> 50,17.4 ± 0.5,20.9 ± 2.9,20.4 ± 4.2,89.7 ± 9.9,62 ± 14.8,63.5 ± 8,,,
"C[C@]12CC[C@H]3[C@@H](CC=C4C[C@@H](O)CC[C@@]43C)[C@@H]1CC[C@@H]2Cc1cc(CO)no1 [compound 32, (17R)-17-((3-(Hydroxymethyl)isoxazol-5-yl)methyl)-androst-5-en-3β-ol]",13.4 ± 2.38,,> 50,18.9 ± 7.2,19.5 ± 0.1,14 ± 1.1,12.1 ± 2.7,14.6 ± 0.5,99.7 ± 17.4,87.8 ± 20.9,31.1 ± 13.3,,,
"C[C@]12CC[C@H]3[C@@H](CC=C4C[C@@H](O)CC[C@@]43C)[C@@H]1CC[C@@H]2Cc1cc(CCl)no1 [compound 38, (17R)-17-((3-(Chloromethyl)isoxazol-5-yl)methyl)-androst-5-en-3β-ol]",,,> 50,> 50,> 50,14.6 ± 1,13 ± 0.4,7.3 ± 1.1,96.1 ± 11.2,92.6 ± 20.5,78.2 ± 24.9,,,
